According to patent publication US8536157B2, “Non-steroidal compounds” (The University of Melbourne, priority 2007, dated 2013):

Tests used:
[1] = target: proteins in rat lung membranes; experiment: Competitive binding assay with [3H]-CP2117 on rat lung membranes (RLM); details: given as Log IC50 (negative values); displacement of 10 nM [3H]-CP2117, overnight at 4° C.; ND- not detected
[2] = tested on: PGE2 release in J774 macrophages; experiment: PGE2 release from LPS/IFNγ-stimulated J774 macrophages (radioimmunoassay); type: cell-based, murine; details: 30 min pre-treatment, 24 hour incubation; for activity at 1 µM / activity at 10 µM: Mus musculus, J774, 24 h; for activity at 1 µM: read-out: Effects on PGE2 release in J774 macrophages at 1 μM as a % of LPS/IFNγ control, mean; for activity at 10 µM: read-out: Effects on PGE2 release in J774 macrophages at l0 μM as a % of LPS/IFNγ control, mean

Structure (SMILES)	Log IC50 RLM binding [1]	activity at 10 µM ([2]; l0 μM)	further results
COc1cc2c(cc1O)/C(=N/OCc1ccc3nonc3c1)CC2 [Compound 2-TB-147, (E)-6-Hydroxy-5-methoxy-2,3-dihydro-1H-inden-1-one O-benzo[c][1,2,5]oxadiazol-5-ylmethyl oxime]	−6.43	–	–
COc1cc(C2CCCCC2)c(C(C)=NOCc2ccc([N+](=O)[O-])cc2)cc1O [CP30424, 2′-Cyclohexyl-5′-hydroxy-4′-methoxyacetophenone O-4-Nitrobenzyl Oxime]	−6.18	–	activity at 1 µM [2]: 83%
COc1ccc(/C(C)=N/OCc2cccc(OC(F)(F)F)c2)cc1O [CP30282, (E)-3′-Hydroxy-4′-methoxyacetophenone O-3-Trifluoromethoxybenzyl Oxime]	−6.41	–	–
COc1cc2c(cc1O)/C(=N/OCc1ccc([N+](=O)[O-])cc1)CC2 [TB81, (E)-6-Hydroxy-5-methoxy-2,3-dihydroinden-1-one O-4-Nitrobenzyl Oxime]	−6.16	–	–
C/C(=N\OCc1ccc([N+](=O)[O-])cc1)c1ccccc1 [CP30252, (E)-Acetophenone O-4-Nitrobenzyl Oxime]	–	–	melting point: 91.3 to 92.3 °C
COc1ccc(/C(C)=N/OCc2cccc(F)c2)cc1O [CP30262, (E)-3′-Hydroxy-4′-methoxyacetophenone O-3-Fluorobenzyl Oxime]	−6.88	–	–
COc1ccc(/C(C)=N/OCc2ccc([N+](=O)[O-])cc2)cc1OC [CP30257, (E)-3′,4′-Dimethoxyacetophenone O-4-Nitrobenzyl Oxime]	–	–	melting point: 118.4 to 121 °C
COc1ccc(/C(C)=N/OCc2cccc(C)c2)cc1O [CP30264, (E)-3′-Hydroxy-4′-methoxyacetophenone O-3-Methylbenzyl Oxime]	−6.96	74%	activity at 1 µM [2]: 77%
COc1ccc(C(=NOCc2ccc([N+](=O)[O-])cc2)[C@H]2CC[C@@H](CCO)CC2)cc1O [CP30348-2, cis-(3-Hydroxy-4-methoxyphenyl)-4-(2-hydroxyethyl)cyclohexylmethanone O-4-Nitrobenzyl Oxime]	−5.6	–	Effects on PGE2 release in J774 macrophages at 1 μM as a % of LPS/IFNγ control, mean [2]: 85 % of LPS/IFNγ control; Effects on PGE2 release in J774 macrophages at l0 μM as a % of LPS/IFNγ control, mean ([2]; l0 μM): 111 % of LPS/IFNγ control
COc1ccc(/C(C)=N/OCc2ccccc2F)cc1O [CP30280, (E)-3′-Hydroxy-4′-methoxyacetophenone O-2-Fluorobenzyl Oxime]	−6.5	–	–
COc1cc(-c2cccc(NC(=O)OC(C)(C)C)c2)c(/C(C)=N/OCc2ccc([N+](=O)[O-])cc2)cc1O [CP30339, (E)-2′-(3-tert-Butoxycarbonylaminophenyl)-5′-hydroxy-4′-methoxyacetophenone O-4-Nitrobenzyl Oxime]	−6.64	36%	–
C/C(=N\OCc1ccc([N+](=O)[O-])cc1)c1ccc(O)c(F)c1 [CP9132, 3′-Fluoro-4′-hydroxyacetophenone-O-4-nitrobenzyloxime]	–	–	melting point: 93 to 94 °C
COc1cc(Br)c(/C(C)=N/OCc2ccc([N+](=O)[O-])cc2)cc1O [CP302108-Major, (E)-2′-Bromo-5′-hydroxy-4′-methoxyacetophenone O-4-Nitrobenzyl Oxime]	–	–	melting point: 136.8 to 138.4 °C
COc1cc(-c2ccc(OC(F)(F)F)cc2)c(/C(C)=N/OCc2ccc([N+](=O)[O-])cc2)cc1O [CP30343, (E)-2′-(4-Trifluoromethoxyphenyl)-5′-hydroxy-4′-methoxyacetophenone O-4-Nitrobenzyl Oxime]	−6.23	51%	activity at 1 µM [2]: 65%
COc1cc(/C(C)=N/OCc2ccc([N+](=O)[O-])cc2)ccc1O [CP30261, (E)-4′-Hydroxy-3′-methoxyacetophenone O-4-Nitrobenzyl Oxime]	−6.65	–	melting point: 118.4 to 121.1 °C
C/C(=N\OCc1ccc([N+](=O)[O-])cc1)c1ccc2c(c1)OCO2 [CP30255, (E)-3′,4′-Methylenedioxyacetophenone O-4-Nitrobenzyl Oxime]	–	–	melting point: 158.7 to 160.5 °C
C/C(=N\OCc1ccc2nonc2c1)c1ccc(O)c(F)c1 [CP9128, 3′-Fluoro-4′-hydroxyacetophenone-O-[(benzo[c][1,2,5]oxadiazol-5-yl)methyl]oxime]	−5.9	65%	activity at 1 µM [2]: 62%
COc1cc(-c2ccc(Cl)cc2)c(/C(C)=N/OCc2ccc([N+](=O)[O-])cc2)cc1O [CP30340, (E)-2′-(4-Chlorophenyl)-5′-hydroxy-4′-methoxyacetophenone O-4-Nitrobenzyl Oxime]	−6.26	51%	–
COc1cc(/C(C)=N/OCc2ccc3nonc3c2)ccc1F [CP9129, 4′-Fluoro-3′-methoxyacetophenone-O-[(benzo[c][1,2,5]oxadiazol-5-yl)methyl]oxime]	–	–	melting point: 65 °C

Structure (SMILES)	Log IC50 RLM binding [1]	activity at 10 µM ([2]; l0 μM)	further results
COc1ccc(/C(C)=N/OCc2ccc([N+](=O)[O-])cc2)cc1F [CP9123, 3′-Fluoro-4′-methoxyacetophenone-O-4-nitrobenzyloxime]	–	–	melting point: 67 to 68 °C
COc1cc2c(cc1O)/C(=N/OCc1ccc([N+](=O)[O-])cc1)CCC2 [TB76, (E)-7-Hydroxy-6-methoxy-3,4-dihydronaphthalen-1(2H)-one O-4-Nitrobenzyl Oxime]	−6.48	–	–
COc1cc(-c2ccc(N)cc2)c(/C(C)=N/OCc2ccc([N+](=O)[O-])cc2)cc1O [CP30381, (E)-2′-(4-Aminophenyl)-5′-hydroxy-4′-methoxyacetophenone O-4-Nitrobenzyl Oxime]	–	–	activity at 1 µM [2]: 62%
COc1cc2c(cc1O)/C(=N/OCc1ccc3nonc3c1)CCC2 [Compound 2-TB-146, (E)-7-Hydroxy-6-methoxy-3,4-dihydronaphthalen-1(2H)-one O-benzo[c][1,2,5]oxadiazol-5-ylmethyl oxime]	−6.91	–	–
COc1cc(-c2ccc(OC)c(OC)c2)c(/C(C)=N/OCc2ccc([N+](=O)[O-])cc2)cc1O [CP30331, (E)-5′-Hydroxy-4′-methoxy-2′-(3,4-dimethoxyphenyl)acetophenone O-4-Nitrobenzyl Oxime]	−6.14	28%	–
COc1cc([C@H]2CC[C@@](C)(CO)CC2)c(C(C)=NOCc2ccc3nonc3c2)cc1O [CP30453, 2′-(4-Hydroxymethyl-4-methyl)cyclohexyl-5′-hydroxy-4′-methoxyacetophenone O-(benzofurazan-5-yl)methyl Oxime]	−5.81	–	–
COc1ccc(/C(C)=N/OCc2ccc(F)c(F)c2)cc1O [CP30281, (E)-3′-Hydroxy-4′-methoxyacetophenone O-3,4-Difluorobenzyl Oxime]	−6.16	–	–
C/C(=N\OCc1ccc2nonc2c1)c1ccc(F)c(O)c1 [CP9135, 4′-Fluoro-3′-hydroxyacetophenone-O—[(benzo[c][1,2,5]oxadiazol-5-yl)methyl]oxime]	−5.28	90%	activity at 1 µM [2]: 66%
C/C(=N\OCc1ccc([N+](=O)[O-])cc1)c1cccc(O)c1 [CP30260, (E)-3′-Hydroxyacetophenone O-4-Nitrobenzyl Oxime]	–	–	melting point: 123.6 to 125.3 °C
COc1ccc(C(=NOCc2ccc([N+](=O)[O-])cc2)[C@H]2CC[C@@H](CCO)CC2)cc1O [CP30348-1, cis-(3-Hydroxy-4-methoxyphenyl)-4-(2-hydroxyethyl)cyclohexylmethanone O-4-Nitrobenzyl Oxime]	−6.02	91%	Effects on PGE2 release in J774 macrophages at 1 μM as a % of LPS/IFNγ control, mean [2]: 124 % of LPS/IFNγ control
COc1ccc(C(=NOCc2ccc([N+](=O)[O-])cc2)[C@H]2CC[C@H](CCO)CC2)cc1O [CP30347, trans-(3-Hydroxy-4-methoxyphenyl)-4-(2-hydroxyethyl)cyclohexylmethanone O-4-Nitrobenzyl Oxime]	−5.75	68%	activity at 1 µM [2]: 102%
COc1ccc(/C(C)=N/OCc2ccc(F)c(F)c2)cc1F [CP9126, 3′-Fluoro-4′-methoxyacetophenone-O-3,4-difluorobenzyloxime]	–	–	melting point: 62 to 63 °C
COc1ccc(-c2cc(OC)c(O)cc2/C(C)=N/OCc2ccc([N+](=O)[O-])cc2)cc1 [CP30338, (E)-5′-Hydroxy-4′-methoxy-2′-(4-methoxyphenyl)acetophenone O-4-Nitrobenzyl Oxime]	−6.88	–	–
COc1ccc(/C(C)=N/OCc2ccc([N+](=O)[O-])cc2)cc1OC(C)C [CP30254, (E)-3′-Isopropoxy-4′-methoxyacetophenone O-4-Nitrobenzyl Oxime]	–	–	melting point: 44.5 to 46.1 °C
COc1cc(-c2ccccc2)c(/C(C)=N/OCc2ccc([N+](=O)[O-])cc2)cc1O [CP30329, (E)-5′-Hydroxy-4′-methoxy-2′-phenylacetophenone O-4-Nitrobenzyl Oxime]	−6.2	55%	–
COc1ccc(/C(C)=N/OCc2ccc(F)cc2)cc1O [CP30266, (E)-3′-Hydroxy-4′-methoxyacetophenone O-4-Fluorobenzyl Oxime]	−6.9	–	–
COc1cc2c(cc1OC)/C(=N/OCc1ccc([N+](=O)[O-])cc1)CC2 [TB54, (E)-5,6-Dimethoxy-2,3-dihydroinden-1-one O-4-Nitrobenzyl Oxime]	–	78%	activity at 1 µM [2]: 95%
COc1cc(-c2ccc(F)cc2)c(/C(C)=N/OCc2ccc([N+](=O)[O-])cc2)cc1O [CP30344, (E)-2′-(4-Fluorophenyl)-5′-hydroxy-4′-methoxyacetophenone O-4-Nitrobenzyl Oxime]	−5.43	94%	activity at 1 µM [2]: 111%
